# Results published in patent US9062041B2 (Bayer Intellectual Property GmbH, priority 2011, dated 2015).
# What was measured:
# Assay type in all cases: cell-based
# [1] = molecular target: EP4 subtype of the human PGE2 receptor (Homo sapiens, UniProt P35408); experiment: cAMP antagonism test on the human EP4 receptor (HTRF cAMP detection); settings: selectivity towards hEP4, IC50 measured by cAMP antagonism test
# Outline: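 Competitive HTRF cAMP read-out (cAMP-d2 vs Eu-cryptate anti-cAMP antibody, 665/620 nm ratio) on lysed human EP4 cells. Compound (0.8 nM–16.5 μM) applied 20 min at RT before 60 min PGE2 challenge (3× solution 0.3 nM, IBMX present); 20 min lysis precedes reading.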
# [2] = molecular target: EP2 subtype of the human PGE2 receptor (Homo sapiens, UniProt P43116); experiment: cAMP antagonism test on the human EP2 receptor (HTRF cAMP detection); settings: hEP2 receptor, read-out: Antagonism hEP2 IC50
# Outline: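 Read-out is a competitive HTRF for cAMP: lysate cAMP displaces cAMP-d2 from Eu cryptate-labelled antibody, and antagonism raises the 665/620 nm ratio. Compound (0.8 nM–16.5 μM) added to EP2 cells 20 min at RT before 60 min PGE2 challenge (3× stock 1.5 nM) with IBMX, followed by 20 min lysis.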
# human PGD receptor = molecular target: T1, human PGD receptor (Homo sapiens, UniProt Q13258); experiment: cAMP antagonism test on the human prostaglandin D receptor (HTRF cAMP detection); settings: selectivity towards hDP, IC50 measured by cAMP antagonism test
# T1 sequence (Q13258 1-359): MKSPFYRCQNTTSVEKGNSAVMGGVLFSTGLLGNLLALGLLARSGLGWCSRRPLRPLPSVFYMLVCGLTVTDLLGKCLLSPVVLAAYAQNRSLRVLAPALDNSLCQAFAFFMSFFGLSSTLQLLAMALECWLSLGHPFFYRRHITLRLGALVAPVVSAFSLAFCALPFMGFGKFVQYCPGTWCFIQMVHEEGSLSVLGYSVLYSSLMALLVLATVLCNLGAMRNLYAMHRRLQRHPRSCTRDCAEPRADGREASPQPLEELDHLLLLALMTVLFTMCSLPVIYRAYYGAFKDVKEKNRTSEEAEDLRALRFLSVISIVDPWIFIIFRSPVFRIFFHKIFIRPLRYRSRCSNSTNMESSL
# Outline: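 HTRF competition read-out (665/620 nm ratio ×10000), where higher FRET means less cAMP, i.e. antagonism. Compounds (0.8 nM–16.5 μM) were preincubated 20 min at RT with cells and cAMP-d2, PGD2 (3× solution, 6 nM) in IBMX-containing PBS added for 30 min at RT, then cells lysed 20 min.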
# EP4 subtype of the human PGE2 receptor, sequence (P35408 whole entry): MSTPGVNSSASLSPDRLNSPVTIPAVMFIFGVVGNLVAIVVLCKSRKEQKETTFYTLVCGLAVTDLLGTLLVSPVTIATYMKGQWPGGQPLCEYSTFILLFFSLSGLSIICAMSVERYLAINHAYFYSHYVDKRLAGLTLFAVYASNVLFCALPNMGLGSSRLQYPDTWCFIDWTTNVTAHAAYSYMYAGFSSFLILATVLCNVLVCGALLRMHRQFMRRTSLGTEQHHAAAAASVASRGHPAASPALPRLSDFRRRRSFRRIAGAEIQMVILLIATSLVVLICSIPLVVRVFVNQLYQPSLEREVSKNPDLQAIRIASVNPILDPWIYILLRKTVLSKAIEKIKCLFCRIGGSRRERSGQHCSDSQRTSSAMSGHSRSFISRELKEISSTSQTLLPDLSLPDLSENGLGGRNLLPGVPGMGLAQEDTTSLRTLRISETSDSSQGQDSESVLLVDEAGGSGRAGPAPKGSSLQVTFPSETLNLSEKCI
# EP2 subtype of the human PGE2 receptor, sequence (P43116 whole entry): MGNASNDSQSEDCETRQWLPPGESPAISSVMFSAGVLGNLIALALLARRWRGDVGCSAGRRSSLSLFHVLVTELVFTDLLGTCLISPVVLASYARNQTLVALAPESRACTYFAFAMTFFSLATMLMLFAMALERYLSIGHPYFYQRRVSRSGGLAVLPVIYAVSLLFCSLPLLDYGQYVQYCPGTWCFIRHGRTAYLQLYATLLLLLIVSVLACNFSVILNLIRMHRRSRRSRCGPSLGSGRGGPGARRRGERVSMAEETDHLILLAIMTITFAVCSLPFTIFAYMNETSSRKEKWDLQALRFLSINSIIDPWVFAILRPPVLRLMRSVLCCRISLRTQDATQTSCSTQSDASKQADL
Selectivity hEP2/hEP4 [1],IC50 [2],Selectivity hEP2/hDP (human PGD receptor),SMILES
xx (xx: 10-100),218 nM,xx (xx: 10-100),"Cc1cc2nn(CC3CCN(C(=O)c4cccc(C(F)(F)F)c4)CC3)cc2cc1C(=O)NCCN1CCOCC1 [Example 82, 6-methyl-N-(2-morph-olinoethyl)-2-({1-[3-(trifluoromethyl)-benzoyl]piperidin-4-yl}methyl)-2H-indazol-5-carboxamide]"
xxx (xxx > 100),3.95 nM,xxx (xxx > 100),"COCCNC(=O)c1ccc2nn(CC3CCN(C(=O)c4ccc(-c5ccc(F)cc5Cl)cc4)CC3)cc2c1C [Example 384, 2-({1-[(2′-chloro-4′-fluorobiphenyl-4-yl)carbonyl]piperidin-4-yl}methyl)-N-(2-methoxyethyl)-4-methyl-2H-indazol-5-carboxamide]"
xxx (xxx > 100),64.3 nM,xxx (xxx > 100),"COCCNC(=O)c1ccc2nn(CC3CCN(C(=O)c4ccc(Oc5ccc(C(N)=O)cc5)cc4)CC3)cc2c1C [Example 30, 2-({1-[4-(4-carbamoylphenoxy)-benzoyl]piperidin-4-yl}methyl)-N-(2-methoxyethyl)-4-methyl-2H-indazol-5-carboxamide]"
xxx (xxx > 100),76.6 nM,xxx (xxx > 100),"Cc1c(C(=O)NCC(F)(F)F)ccc2nn(CC3CCN(C(=O)c4ccc(Oc5ccc(C#N)cc5)cc4)CC3)cc12 [Example 306, 2-({1-[4-(4-cyanophenoxy)benzoyl]piperidin-4-yl}methyl)-4-methyl-N-(2,2,2-trifluoroethyl)-2H-indazol-5-carboxamide]"
xxx (xxx > 100),56.5 nM,xxx (xxx > 100),"Cc1c(C(=O)NCCSC(F)(F)F)ccc2nn(CC3CN(C(=O)c4ccc(C(F)(F)F)cc4F)C3)cc12 [Example 134, 2-({1-[2-fluoro-4-(trifluoromethyl)benzoyl]azetidin-3-yl}methyl)-4-methyl-N-{2-[(trifluoromethyl)sulphanyl]ethyl}-2H-indazol-5-carboxamide]"
xxx (xxx > 100),6.18 nM,xxx (xxx > 100),"Cc1c(C(=O)NCCOCC(F)(F)F)ccc2nn(CC3CCN(C(=O)c4ccc(C5CC5)cc4)CC3)cc12 [Example 95, 2-{[1-(4-cyclo-propylbenzoyl)-piperidin-4-yl]-methyl}-4-methyl-N-[2-(2,2,2-tri-fluoroethoxy)ethyl]-2H-indazol-5-carboxamide]"
xxx (xxx > 100),4.74 nM,xxx (xxx > 100),"COCCNC(=O)c1ccc2nn(CC3CCN(C(=O)c4ccc(Br)cc4)CC3)cc2c1C [Example 54, 2-{[1-(4-bromo-benzoyl)piperidin-4-yl]methyl}-N-(2-methoxyethyl)-4-methyl-2H-indazol-5-carboxamide]"
xx (xx: 10-100),405 nM,xx (xx: 10-100),"Cc1c(C(=O)NCCN2CCOCC2)ccc2nn(CC3CCN(C(=O)c4ccc(Oc5ccc(F)cc5)cc4)CC3)cc12 [Example 67, 2-({1-[4-(4-fluoro-phenoxy)benzoyl]-piperidin-4-yl}-methyl)-4-methyl-N-(2-morpholinoethyl)-2H-indazol-5-carboxamide]"
xxx (xxx > 100),5.62 nM,xxx (xxx > 100),"COCCNC(=O)c1ccc2nn(C[C@H]3CCN(C(=O)c4ccc(Oc5ccc(C(F)(F)F)cc5)cc4)C3)cc2c1C [Example 224, N-(2-methoxyethyl)-4-methyl-2-{[(S)-1-{4-[4-(trifluoromethyl)phenoxy]benzoyl}pyrrolidin-3-yl]methyl}-2H-indazol-5-carboxamide]"
xxx (xxx > 100),15.5 nM,xxx (xxx > 100),"COCCNC(=O)c1ccc2nn(CC3CN(C(=O)c4ccc(Cl)cc4F)C3)cc2c1C [Example 121, 2-{[1-(4-chloro-2-fluorobenzoyl)azetidin-3-yl]methyl}-N-(2-methoxyethyl)-4-methyl-2H-indazol-5-carboxamide]"
xx (xx: 10-100),419 nM,xx (xx: 10-100),"COC(C)CNC(=O)c1ccc2nn(CC3CN(C(=O)c4ccc(Cl)cc4)C3)cc2c1C (single isomer, unassigned) [Example 139, (R or S)-2-{[1-(4-chlorobenzoyl)azetidin-3-yl]methyl}-N-(2-methoxypropyl)-4-methyl-2H-indazol-5-carboxamide]"
xxx (xxx > 100),14.9 nM,xxx (xxx > 100),"COCCNC(=O)c1ccc2nn(CC3CCN(C(=O)c4ccc(Oc5ccccn5)cc4)CC3)cc2c1C [Example 346, N-(2-methoxyethyl)-4-methyl-2-({1-[4-(2-pyridyloxy)benzoyl]piperidin-4-yl}-methyl)-2H-indazol-5-carboxamide]"
xxx (xxx > 100),18.2 nM,xxx (xxx > 100),"Cc1c(C(=O)NCCS(C)(=O)=O)ccc2nn(CC3CCN(C(=O)c4ccc(-c5ccc(F)cc5F)cc4)CC3)cc12 [Example 398, 2-({1-[(2′,4′-difluorobiphenyl-4-yl)carbonyl]piperidin-4-yl}methyl)-N-(2-mesylethyl)-4-methyl-2H-indazol-5-carboxamide]"
xxx (xxx > 100),13.7 nM,xxx (xxx > 100),"O=C(NCCOCC1CC1)c1ccc2nn(CC3CCN(C(=O)c4ccc(Oc5ccc(F)cc5)cc4)CC3)cc2c1OC(F)F [Example 230, N-[2-(cyclopropylmethoxy)ethyl]-4-(difluoromethoxy)-2-({1-[4-(4-fluoro-phenoxy)benzoyl]piperidin-4-yl}methyl)-2H-indazol-5-carboxamide]"
xxx (xxx > 100),16.5 nM,xxx (xxx > 100),"Cc1c(C(=O)NCC2COCCO2)ccc2nn(CC3CCN(C(=O)c4ccc(-c5ccc(F)cc5)cc4)CC3)cc12 (racemic) [Example 411, (+/−)-N-(1,4-dioxan-2-ylmethyl)-2-({1-[(4′-fluorobiphenyl-4-yl)carbonyl]-piperidin-4-yl}methyl)-4-methyl-2H-indazol-5-carboxamide]"
xxx (xxx > 100),27.3 nM,xxx (xxx > 100),"COCCNC(=O)c1ccc2nn(CC3CCN(C(=O)c4ccc(-c5ccc(C)nc5)cc4)CC3)cc2c1C [Example 377, N-(2-methoxyethyl)-4-methyl-2-({1-[4-(6-methylpyridin-3-yl)benzoyl]piperidin-4-yl}methyl)-2H-indazol-5-carboxamide]"

SMILES,Selectivity hEP2/hEP4 [1],IC50 [2],Selectivity hEP2/hDP (human PGD receptor)
"Cc1c(C(=O)NCCOC(C)(C)C)ccc2nn(CC3CN(C(=O)c4ccc(Cl)cc4)C3)cc12 [Example 153, N-(2-tert-butoxyethyl)-2-{[1-(4-chlorobenzoyl)azetidin-3-yl]methyl}-4-methyl-2H-indazol-5-carboxamide]",xxx (xxx > 100),60.8 nM,xxx (xxx > 100)
